As usually defined, the IC50 is the concentration that inhibits the measured activity by half.

Read-outs that look alike come from different tables or passages of the source.

The assay relates to HIV. Kind of assay: HIV MT4 Assay (antiviral HIV activity in MT-4 cells). It counts as cell-based. How it is done:
Antiviral HIV activity and cytotoxicity values for compounds of the invention from Table 1 were measured in parallel in the HTLV-1 transformed cell line MT-4 based on the method previously described (Hazen et al., 2007, In vitro antiviral activity of the novel, tyrosyl-based human immunodeficiency virus (HIV) type 1 protease inhibitor brecanavir (GW640385) in combination with other antiretrovirals and against a panel of protease inhibitor-resistant HIV (Hazen et al., “In vitro antiviral activity of the novel, tyrosyl-based human immunodeficiency virus (HIV) type 1 protease inhibitor brecanavir (GW640385) in combination with other antiretrovirals and against a panel of protease inhibitor-resistant HIV”, Antimicrob. Agents Chemother. 2007, 51: 3147-3154; and Pauwels et al., “Sensitive and rapid assay on MT-4 cells for the detection of antiviral compounds against the AIDS virus”, (J. of Virological Methods 1987, 16: 171-185).
Luciferase activity was measured 96 hours later by adding a cell titer glo (Promega, Madison, Wis.). Percent inhibition of cell protection data was plotted relative to no compound control. Under the same condition, cytotoxicity of the compounds was determined using cell titer Glo™ (Promega, Madison, Wis.). IC50s were determined from a 10 point dose response curve using 3-4-fold serial dilution for each compound, which spans a concentration range >1000 fold.
These values are plotted against the molar compound concentrations using the standard four parameter logistic equation: y=((Vmax*x^n)/(K^n+x^n))+Y^2
Y^2=minimum y n=slope factor
Vmax=maximum y x=compound concentration [M]

The mark [1] stands for this setting: Human immunodeficiency virus 1, MT4, HTLV-1 transformed cell line MT-4, luciferase activity measured 96 hours later, Table 3, read-out: HIV MT4 Assay IC50.
Where [2] appears, read: MT4, 96 h, read-out: MT4 (IC50).

On to `Cn1c([C@H](OC(C)(C)C)C(=O)O)c(-c2ccc(Cl)cc2)c2ccn(Cc3ccc(F)c(F)c3)c2c1=O` [Example 6, (S)-2-(tert-butoxy)-2-(4-(4-chlorophenyl)-1-(3,4-difluorobenzyl)-6-methyl-7-oxo-6,7-dihydro-1H-pyrrolo[2,3-c]pyridin-5-yl)acetic acid], for which the IC50 amounted to 140 nM under setting [1] and 140 nM under setting [2].

As to `Cc1cn(Cc2ccccc2)c2c(=O)n(C)c(C(OC(C)(C)C)C(=O)O)c(-c3ccc(Cl)cc3)c12` (centres unmarked) [Example 15, 2-(1-benzyl-4-(4-chlorophenyl)-3,6-dimethyl-7-oxo-6,7-dihydro-1H-pyrrolo[2,3-c]pyridin-5-yl)-2-(tert-butoxy)acetic acid], the IC50 under setting [1] turned out to be 1620 nM and the IC50 under setting [2] is 1620 nM.

With `CC(C)Cn1ccc2c(-c3ccc(Cl)cc3)c(C(OC(C)(C)C)C(=O)O)n(C)c(=O)c21` (centres unmarked) [Example 5, 2-(tert-butoxy)-2-(4-(4-chlorophenyl)-1-isobutyl-6-methyl-7-oxo-6,7-dihydro-1H-pyrrolo[2,3-c]pyridin-5-yl)acetic acid], the IC50 came out at 5000 nM under setting [1] and 5000 nM under setting [2].

With `Cc1ccc(-c2c(C(OC(C)(C)C)C(=O)O)n(C)c(=O)c3c2ccn3Cc2ccc(C(N)=O)cc2)cc1` (centres unmarked) [Example 22, 2-(tert-butoxy)-2-(1-(4-carbamoylbenzyl)-6-methyl-7-oxo-4-(p-tolyl)-6,7-dihydro-1H-pyrrolo[2,3-c]pyridin-5-yl)acetic acid], the IC50 runs as follows: under setting [1], 8700 nM; under setting [2], 8700 nM.

Turning to `Cc1ccc(-c2c(C(OC(C)(C)C)C(=O)O)n(C)c(=O)c3c2c2ccccc2n3C)cc1` (centres unmarked) [Example 57, 2-(tert-butoxy)-2-(2,9-dimethyl-1-oxo-4-(p-tolyl)-2,9-dihydro-1H-pyrido[3,4-b]indol-3-yl)acetic acid], the IC50 by setting is: under setting [1], 80 nM; under setting [2], 80 nM.

For `COCCn1ccc2c(-c3ccc(Cl)cc3)c(C(OC(C)(C)C)C(=O)O)n(C)c(=O)c21` (centres unmarked) [Example 4, 2-(tert-butoxy)-2-(4-(4-chlorophenyl)-1-(2-methoxyethyl)-6-methyl-7-oxo-6,7-dihydro-1H-pyrrolo[2,3-c]pyridin-5-yl)acetic acid], the IC50 runs as follows: under setting [1], 1550 nM; under setting [2], 1550 nM.

Take `Cc1ccc(-c2c(C(OC(C)(C)C)C(=O)O)n(C)c(=O)c3c2cnn3Cc2ccc(F)cc2)cc1` (centres unmarked) [Example 64, 2-(tert-Butoxy)-2-(1-(4-fluorobenzyl)-6-methyl-7-oxo-4-(p-tolyl)-6,7-dihydro-1H-pyrazolo[3,4-c]pyridin-5-yl)acetic acid]: the IC50 under setting [1] amounted to 180 nM and the IC50 under setting [2] worked out at 180 nM.

For `Cc1ccc(-c2c(C(OC(C)(C)C)C(=O)O)n(C)c(=O)c3c2ccn3Cc2ccc(SC(F)(F)F)cc2)cc1` (centres unmarked) [Example 23, 2-(tert-butoxy)-2-(6-methyl-7-oxo-4-(p-tolyl)-1-(4-((trifluoromethyl)thio)benzyl)-6,7-dihydro-1H-pyrrolo[2,3-c]pyridin-5-yl)acetic acid], the half-maximal inhibitory concentration (IC50) turned out to be 1500 nM under setting [1] and 1500 nM under setting [2].

Consider `Cc1ccc(-c2c(C(OC(C)(C)C)C(=O)O)n(C)c(=O)c3c2ccn3CCc2ccc(F)cc2)cc1` (centres unmarked) [Example 26, 2-(tert-butoxy)-2-(1-(4-fluorophenethyl)-6-methyl-7-oxo-4-(p-tolyl)-6,7-dihydro-1H-pyrrolo[2,3-c]pyridin-5-yl)acetic acid], for which the IC50 is 2250 nM under setting [1] and 2250 nM under setting [2].

Consider `COc1ccc(Cn2ncc3c(-c4ccc(C)c(C)c4)c(C(OC(C)(C)C)C(=O)O)n(C)c(=O)c32)cc1` (centres unmarked) [Example 63, 2-(tert-Butoxy)-2-(4-(3,4-dimethylphenyl)-1-(4-methoxybenzyl)-6-methyl-7-oxo-6,7-dihydro-1H-pyrazolo[3,4-c]pyridin-5-yl)acetic acid], for which the IC50 by setting is: under setting [1], 1200 nM; under setting [2], 1200 nM.

The record behind these values is patent US9012642B2, “Pyrrolopyridinone compounds and methods for treating HIV” (ViiV Healthcare UK Limited, priority 2011, dated 2015).
